Reference: publication PMC2666327 (Chembiochem : a European journal of chemical biology, 2008)

Biological target: T1, Type I Ins(1,4,5)P3 5-phosphatase (Homo sapiens, UniProt Q14642)
T1 sequence (Q14642 1-412 limits assumed): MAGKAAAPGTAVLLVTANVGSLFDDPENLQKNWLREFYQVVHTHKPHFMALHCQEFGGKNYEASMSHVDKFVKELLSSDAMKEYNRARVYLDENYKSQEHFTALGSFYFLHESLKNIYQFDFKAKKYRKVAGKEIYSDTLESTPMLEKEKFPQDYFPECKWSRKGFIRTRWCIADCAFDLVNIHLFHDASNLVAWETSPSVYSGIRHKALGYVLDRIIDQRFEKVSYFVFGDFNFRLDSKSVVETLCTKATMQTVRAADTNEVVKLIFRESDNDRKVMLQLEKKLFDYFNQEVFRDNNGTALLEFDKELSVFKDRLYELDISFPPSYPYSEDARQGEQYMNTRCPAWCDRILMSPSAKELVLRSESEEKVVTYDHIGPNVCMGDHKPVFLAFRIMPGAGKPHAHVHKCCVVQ
Experiment: [3H]Ins
Format: biochemical

IC50: 68 ± 16 µM
Structure (SMILES): O=P(O)(O)Oc1ccc(OP(=O)(O)O)c(OP(=O)(O)O)c1OCc1ccccc1 [compound 30, 3-benzyloxybenzene 1,2,4-trisphosphate]
